PubChem BioAssay AID1919004 (Molecular Pharmacology Branch, DTP, NCI, 2023)
“And” between values parts separate entries of the source, which are not always exact repeats. Equal values may be shown once.

System: 883617-216-R-J1-PDC complex spheroids, growth, % test/control
Assay: Anticancer human tumor 883617-216-R-J1-PDC patient-derived bladder carcinoma cell line growth inhibition [AhR]
Conditions: for viability, T/C: stronger effect = lower value; active = viability on the fitted dose curve at most 10% of control; inactive = the rest
Method in brief: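 Agents were dosed in half-log steps down from roughly clinical Cmax, or from 10 microM where Cmax was unknown, alone and with AhR antagonists. Read-out: percent test/control growth of tumor spheroids containing HUVEC and MSC stromal cells.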

[1] = curve of first compound, second compound 0.1 µM
[2] = curve of first compound, second compound 0.316 µM
[3] = curve of first compound, second compound 1 µM
[4] = curve of first compound, second compound 3.16 µM
[5] = curve of first compound, second compound 10 µM
[6] = second compound 0.1 µM, first compound 0.0316 µM
[7] = second compound 0.1 µM, first compound 0.1 µM
[8] = second compound 0.316 µM, first compound 0.0316 µM
[9] = second compound 0.316 µM, first compound 0.1 µM
[10] = second compound 1 µM, first compound 0.0316 µM
[11] = second compound 1 µM, first compound 0.1 µM
[12] = second compound 3.16 µM, first compound 0.0316 µM
[13] = second compound 3.16 µM, first compound 0.1 µM
[14] = second compound 10 µM, first compound 0.0316 µM
[15] = second compound 10 µM, first compound 0.1 µM
[16] = second compound 0.1 µM, first compound 0.000949 µM
[17] = second compound 0.1 µM, first compound 0.003 µM
[18] = second compound 0.1 µM, first compound 0.00949 µM
[19] = second compound 0.1 µM, first compound 0.03 µM
[20] = second compound 0.1 µM, first compound 0.0949 µM
[21] = second compound 0.1 µM, first compound 0.3 µM
[22] = second compound 0.316 µM, first compound 0.000949 µM
[23] = second compound 0.316 µM, first compound 0.003 µM
[24] = second compound 0.316 µM, first compound 0.00949 µM
[25] = second compound 0.316 µM, first compound 0.03 µM
[26] = second compound 0.316 µM, first compound 0.0949 µM
[27] = second compound 0.316 µM, first compound 0.3 µM
[28] = second compound 1 µM, first compound 0.000949 µM
[29] = second compound 1 µM, first compound 0.003 µM
[30] = second compound 1 µM, first compound 0.00949 µM
[31] = second compound 1 µM, first compound 0.03 µM
[32] = second compound 1 µM, first compound 0.0949 µM
[33] = second compound 1 µM, first compound 0.3 µM
[34] = second compound 3.16 µM, first compound 0.000949 µM
[35] = second compound 3.16 µM, first compound 0.003 µM
[36] = second compound 3.16 µM, first compound 0.00949 µM
[37] = second compound 3.16 µM, first compound 0.03 µM
[38] = second compound 3.16 µM, first compound 0.0949 µM
[39] = second compound 3.16 µM, first compound 0.3 µM
[40] = second compound 10 µM, first compound 0.000949 µM
[41] = second compound 10 µM, first compound 0.003 µM
[42] = second compound 10 µM, first compound 0.00949 µM
[43] = second compound 10 µM, first compound 0.03 µM
[44] = second compound 10 µM, first compound 0.0949 µM
[45] = second compound 10 µM, first compound 0.3 µM
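Also: exposure lasted 7 days after dosing on day 3 of spheroid growth.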

Cc1ccccc1N=Nc1ccc(NC(=O)c2ccnn2C)c(C)c1
inactive: viability, T/C (compound 0.1 µM) 90.3% [middle of 20 runs] | viability, T/C (compound 0.316 µM) 84.6% [middle of 20 runs] | viability, T/C (compound 1 µM) 84.5% [middle of 19 runs] | viability, T/C (compound 3.16 µM) 77% [middle of 20 runs] | viability, T/C (compound 10 µM) 77% [middle of 21 runs]
> 10000 nM: IC50 (compound alone, run of 06/14/2022)

Cn1ncnc1C1c2n[nH]c(=O)c3cc(F)cc(c23)NC1c1ccc(F)cc1 (stereo not drawn) + Cc1cncc(-c2nc(NCCc3c[nH]c4ccccc34)c3ncn(C(C)C)c3n2)c1
> 100 nM: IC50 [1] | IC50 [2] | IC50 [3] | IC50 [4] | IC50 [5]
inactive: viability, T/C (second compound 0.1 µM, first compound 0.000316 µM) 97.3% | viability, T/C (second compound 0.1 µM, first compound 0.001 µM) 97.5% | viability, T/C (second compound 0.1 µM, first compound 0.00316 µM) 82.8% | viability, T/C (second compound 0.1 µM, first compound 0.01 µM) 80.6% | viability, T/C [6] 78% | viability, T/C [7] 75.2% | viability, T/C (second compound 0.316 µM, first compound 0.000316 µM) 90.7% | viability, T/C (second compound 0.316 µM, first compound 0.001 µM) 97.4% | viability, T/C (second compound 0.316 µM, first compound 0.00316 µM) 90.1% | viability, T/C (second compound 0.316 µM, first compound 0.01 µM) 86.5% | viability, T/C [8] 90.1% | viability, T/C [9] 80.9% | viability, T/C (second compound 1 µM, first compound 0.000316 µM) 100% | viability, T/C (second compound 1 µM, first compound 0.001 µM) 101% | viability, T/C (second compound 1 µM, first compound 0.00316 µM) 97.2% | viability, T/C (second compound 1 µM, first compound 0.01 µM) 87.5% | viability, T/C [10] 82.7% | viability, T/C [11] 88.7% | viability, T/C (second compound 3.16 µM, first compound 0.000316 µM) 106% | viability, T/C (second compound 3.16 µM, first compound 0.001 µM) 106% | viability, T/C (second compound 3.16 µM, first compound 0.00316 µM) 102% | viability, T/C (second compound 3.16 µM, first compound 0.01 µM) 103% | viability, T/C [12] 98.2% | viability, T/C [13] 95.1% | viability, T/C (second compound 10 µM, first compound 0.000316 µM) 51% | viability, T/C (second compound 10 µM, first compound 0.001 µM) 56.3% | viability, T/C (second compound 10 µM, first compound 0.00316 µM) 56.5% | viability, T/C (second compound 10 µM, first compound 0.01 µM) 61.2% | viability, T/C [14] 56.3% | viability, T/C [15] 62.6%

Nc1ncn(C2CC(O)C(CO)S2)c(=O)n1 (stereo not drawn) + Cc1ccccc1N=Nc1ccc(NC(=O)c2ccnn2C)c(C)c1
inactive: viability, T/C [16] 98.4% | viability, T/C [17] 90.2% | viability, T/C [18] 88.8% | viability, T/C [19] 88.7% | viability, T/C [20] 87.3% | viability, T/C [21] 75.8% | viability, T/C [22] 83.9% | viability, T/C [23] 93.8% | viability, T/C [24] 83.5% | viability, T/C [25] 81.2% | viability, T/C [26] 84.6% | viability, T/C [27] 75.5% | viability, T/C [28] 84.3% | viability, T/C [29] 84.2% | viability, T/C [30] 99.2% | viability, T/C [31] 80.3% | viability, T/C [32] 76.1% | viability, T/C [33] 80.7% | viability, T/C [34] 81.7% | viability, T/C [35] 87.9% | viability, T/C [36] 85% | viability, T/C [37] 73.3% | viability, T/C [38] 86.4% | viability, T/C [39] 78.7% | viability, T/C [40] 73.8% | viability, T/C [41] 68.5% | viability, T/C [42] 76.3% | viability, T/C [43] 79.2% | viability, T/C [44] 76.9% | viability, T/C [45] 83.4%
> 300 nM: IC50 [1] | IC50 [2] | IC50 [3] | IC50 [4] | IC50 [5]

Nc1ccccc1NC(=O)c1ccc(CNC(=O)OCc2cccnc2)cc1 + Cc1ccccc1N=Nc1ccc(NC(=O)c2ccnn2C)c(C)c1
active: viability, T/C (second compound 0.1 µM, first compound 10 µM) 1.52% | viability, T/C (second compound 0.316 µM, first compound 10 µM) 1.3% | viability, T/C (second compound 1 µM, first compound 10 µM) 1.53% | viability, T/C (second compound 3.16 µM, first compound 10 µM) 1.32% | viability, T/C (second compound 10 µM, first compound 10 µM) 2.23%
1060 nM: IC50 [1]
1140 nM: IC50 [5]
818 nM: IC50 [4]
inactive: viability, T/C [6] 102% | viability, T/C [7] 103% | viability, T/C (second compound 0.1 µM, first compound 0.316 µM) 77.5% | viability, T/C (second compound 0.1 µM, first compound 1 µM) 51% | viability, T/C (second compound 0.1 µM, first compound 3.16 µM) 23.3% | viability, T/C [8] 85.7% | viability, T/C [9] 95% | viability, T/C (second compound 0.316 µM, first compound 0.316 µM) 86% | viability, T/C (second compound 0.316 µM, first compound 1 µM) 49.5% | viability, T/C (second compound 0.316 µM, first compound 3.16 µM) 18.6% | viability, T/C [10] 87.6% | viability, T/C [11] 88.5% | viability, T/C (second compound 1 µM, first compound 0.316 µM) 76.7% | viability, T/C (second compound 1 µM, first compound 1 µM) 44.8% | viability, T/C (second compound 1 µM, first compound 3.16 µM) 20.1% | viability, T/C [12] 80.2% | viability, T/C [13] 84.7% | viability, T/C (second compound 3.16 µM, first compound 0.316 µM) 70.6% | viability, T/C (second compound 3.16 µM, first compound 1 µM) 44.8% | viability, T/C (second compound 3.16 µM, first compound 3.16 µM) 16.6% | viability, T/C [14] 79.5% | viability, T/C [15] 76.6% | viability, T/C (second compound 10 µM, first compound 0.316 µM) 72.4% | viability, T/C (second compound 10 µM, first compound 1 µM) 51.9% | viability, T/C (second compound 10 µM, first compound 3.16 µM) 25.4%
901 nM: IC50 [3]
1080 nM: IC50 [2]

Nc1ncn(C2CC(O)C(CO)S2)c(=O)n1 (stereo not drawn) + CC(CO)NC(=O)c1cc(-c2ccc(Cl)cc2)nn(-c2cnn(C)c2)c1=O
> 300 nM: IC50 [1] | IC50 [3] | IC50 [4] | IC50 [5]
inactive: viability, T/C [16] 65.6% | viability, T/C [17] 57.9% | viability, T/C [18] 65% | viability, T/C [19] 76.6% | viability, T/C [20] 80.2% | viability, T/C [21] 85.5% | viability, T/C [22] 72.1% | viability, T/C [23] 112% | viability, T/C [24] 70.8% | viability, T/C [25] 104% | viability, T/C [26] 65.7% | viability, T/C [27] 49.2% | viability, T/C [28] 69.9% | viability, T/C [29] 66.6% | viability, T/C [30] 78.5% | viability, T/C [31] 118% | viability, T/C [32] 43.9% | viability, T/C [33] 89.8% | viability, T/C [34] 71% | viability, T/C [35] 80.3% | viability, T/C [36] 75.6% | viability, T/C [37] 76% | viability, T/C [38] 72.2% | viability, T/C [39] 92.9% | viability, T/C [40] 67.4% | viability, T/C [41] 74.7% | viability, T/C [42] 76.2% | viability, T/C [43] 71.9% | viability, T/C [44] 102% | viability, T/C [45] 111%
288 nM: IC50 [2]

O=C(C=Cn1cnc(-c2cc(C(F)(F)F)cc(C(F)(F)F)c2)n1)NNc1cnccn1
inactive: viability, T/C (compound 0.00949 µM) 89.8% and 81.2% and 74.5% | viability, T/C (compound 0.03 µM) 88.8% and 78.5% and 89% | viability, T/C (compound 0.0949 µM) 67.4% and 63% and 65.5% | viability, T/C (compound 0.3 µM) 56.7% and 51.7% and 68.9% | viability, T/C (compound 0.949 µM) 45.9% and 42.6% and 45.6% | viability, T/C (compound 3 µM) 28.2% and 30.1% and 35.2%
552 nM and 386 nM and 803 nM: IC50 (curve of compound)
